Source: patent publication US9340590B2 (priority 2011, dated 2016)
pIC50: −log10 of the molar value. Like-named read-outs stand apart in the source and are kept apart here. Positions of bridges follow the written chain, without caps; N, C: chain ends. Non-standard residues stand in square brackets, D forms with d. Residues, ends and D or L forms follow the SMILES beside them. 1Nal = N[C@@H](Cc1cccc2ccccc12)C(=O)O

What was measured:
Assay in all cases: cell-based
hNav1.7 [1] = target: T1, hNav1.7 (Homo sapiens, UniProt Q15858); type: cell-based
hNav1.5 [2] = target: T2, hNav1.5 (Homo sapiens, UniProt Q14524)
T2 sequence (Q14524 whole entry, looked up): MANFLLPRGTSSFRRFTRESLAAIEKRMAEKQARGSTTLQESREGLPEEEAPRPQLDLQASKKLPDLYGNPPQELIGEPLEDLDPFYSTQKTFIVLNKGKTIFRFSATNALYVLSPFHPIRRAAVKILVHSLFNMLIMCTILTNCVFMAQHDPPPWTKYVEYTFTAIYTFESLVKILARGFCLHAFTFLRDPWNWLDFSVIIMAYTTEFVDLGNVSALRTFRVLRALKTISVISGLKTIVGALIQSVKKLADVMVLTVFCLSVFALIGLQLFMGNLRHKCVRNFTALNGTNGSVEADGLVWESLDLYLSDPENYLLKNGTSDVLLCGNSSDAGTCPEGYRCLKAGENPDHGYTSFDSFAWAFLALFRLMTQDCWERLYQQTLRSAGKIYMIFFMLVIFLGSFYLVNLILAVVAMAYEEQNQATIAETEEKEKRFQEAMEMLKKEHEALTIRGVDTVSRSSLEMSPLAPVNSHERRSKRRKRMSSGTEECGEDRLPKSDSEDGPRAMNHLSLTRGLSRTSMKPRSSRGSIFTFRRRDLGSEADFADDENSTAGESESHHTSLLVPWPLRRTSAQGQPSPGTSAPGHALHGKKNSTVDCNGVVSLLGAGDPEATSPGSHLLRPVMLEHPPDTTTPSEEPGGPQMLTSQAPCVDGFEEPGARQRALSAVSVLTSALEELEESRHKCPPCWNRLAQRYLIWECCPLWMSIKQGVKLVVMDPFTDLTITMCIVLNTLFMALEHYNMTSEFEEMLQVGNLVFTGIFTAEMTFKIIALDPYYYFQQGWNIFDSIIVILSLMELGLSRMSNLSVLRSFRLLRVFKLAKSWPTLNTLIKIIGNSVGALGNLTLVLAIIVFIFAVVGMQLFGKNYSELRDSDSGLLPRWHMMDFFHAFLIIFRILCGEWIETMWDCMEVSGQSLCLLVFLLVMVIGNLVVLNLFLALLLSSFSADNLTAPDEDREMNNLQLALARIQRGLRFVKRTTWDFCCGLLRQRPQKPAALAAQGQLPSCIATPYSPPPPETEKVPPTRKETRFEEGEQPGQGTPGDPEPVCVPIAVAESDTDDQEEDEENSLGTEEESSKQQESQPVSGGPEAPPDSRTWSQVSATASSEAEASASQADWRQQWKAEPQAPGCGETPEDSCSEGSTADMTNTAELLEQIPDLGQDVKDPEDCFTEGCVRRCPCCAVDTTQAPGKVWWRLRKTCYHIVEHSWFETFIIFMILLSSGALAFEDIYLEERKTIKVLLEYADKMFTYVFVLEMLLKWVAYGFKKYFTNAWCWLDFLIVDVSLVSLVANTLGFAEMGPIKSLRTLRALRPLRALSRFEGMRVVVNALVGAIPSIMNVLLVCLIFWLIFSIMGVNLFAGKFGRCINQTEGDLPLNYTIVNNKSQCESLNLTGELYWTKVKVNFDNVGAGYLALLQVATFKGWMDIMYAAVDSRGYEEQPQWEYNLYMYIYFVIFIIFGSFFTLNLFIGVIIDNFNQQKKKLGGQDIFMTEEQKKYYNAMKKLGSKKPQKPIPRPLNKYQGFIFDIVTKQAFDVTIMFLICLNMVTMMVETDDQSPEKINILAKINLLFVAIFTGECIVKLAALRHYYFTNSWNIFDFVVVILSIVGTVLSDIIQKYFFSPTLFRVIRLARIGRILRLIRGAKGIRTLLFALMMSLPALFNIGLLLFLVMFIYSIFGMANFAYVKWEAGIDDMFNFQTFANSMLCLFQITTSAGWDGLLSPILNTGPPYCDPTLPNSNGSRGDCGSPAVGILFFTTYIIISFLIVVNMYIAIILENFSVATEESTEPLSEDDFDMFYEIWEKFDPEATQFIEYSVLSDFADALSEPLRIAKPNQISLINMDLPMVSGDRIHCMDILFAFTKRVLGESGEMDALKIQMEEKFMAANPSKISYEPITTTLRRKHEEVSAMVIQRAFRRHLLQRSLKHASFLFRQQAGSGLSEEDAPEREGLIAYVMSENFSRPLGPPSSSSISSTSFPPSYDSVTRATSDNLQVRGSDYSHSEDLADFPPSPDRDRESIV

hNav1.3 [3] = target: T3, hNav1.3 (Homo sapiens, UniProt Q9NY46)
T3 sequence (Q9NY46 whole entry, looked up): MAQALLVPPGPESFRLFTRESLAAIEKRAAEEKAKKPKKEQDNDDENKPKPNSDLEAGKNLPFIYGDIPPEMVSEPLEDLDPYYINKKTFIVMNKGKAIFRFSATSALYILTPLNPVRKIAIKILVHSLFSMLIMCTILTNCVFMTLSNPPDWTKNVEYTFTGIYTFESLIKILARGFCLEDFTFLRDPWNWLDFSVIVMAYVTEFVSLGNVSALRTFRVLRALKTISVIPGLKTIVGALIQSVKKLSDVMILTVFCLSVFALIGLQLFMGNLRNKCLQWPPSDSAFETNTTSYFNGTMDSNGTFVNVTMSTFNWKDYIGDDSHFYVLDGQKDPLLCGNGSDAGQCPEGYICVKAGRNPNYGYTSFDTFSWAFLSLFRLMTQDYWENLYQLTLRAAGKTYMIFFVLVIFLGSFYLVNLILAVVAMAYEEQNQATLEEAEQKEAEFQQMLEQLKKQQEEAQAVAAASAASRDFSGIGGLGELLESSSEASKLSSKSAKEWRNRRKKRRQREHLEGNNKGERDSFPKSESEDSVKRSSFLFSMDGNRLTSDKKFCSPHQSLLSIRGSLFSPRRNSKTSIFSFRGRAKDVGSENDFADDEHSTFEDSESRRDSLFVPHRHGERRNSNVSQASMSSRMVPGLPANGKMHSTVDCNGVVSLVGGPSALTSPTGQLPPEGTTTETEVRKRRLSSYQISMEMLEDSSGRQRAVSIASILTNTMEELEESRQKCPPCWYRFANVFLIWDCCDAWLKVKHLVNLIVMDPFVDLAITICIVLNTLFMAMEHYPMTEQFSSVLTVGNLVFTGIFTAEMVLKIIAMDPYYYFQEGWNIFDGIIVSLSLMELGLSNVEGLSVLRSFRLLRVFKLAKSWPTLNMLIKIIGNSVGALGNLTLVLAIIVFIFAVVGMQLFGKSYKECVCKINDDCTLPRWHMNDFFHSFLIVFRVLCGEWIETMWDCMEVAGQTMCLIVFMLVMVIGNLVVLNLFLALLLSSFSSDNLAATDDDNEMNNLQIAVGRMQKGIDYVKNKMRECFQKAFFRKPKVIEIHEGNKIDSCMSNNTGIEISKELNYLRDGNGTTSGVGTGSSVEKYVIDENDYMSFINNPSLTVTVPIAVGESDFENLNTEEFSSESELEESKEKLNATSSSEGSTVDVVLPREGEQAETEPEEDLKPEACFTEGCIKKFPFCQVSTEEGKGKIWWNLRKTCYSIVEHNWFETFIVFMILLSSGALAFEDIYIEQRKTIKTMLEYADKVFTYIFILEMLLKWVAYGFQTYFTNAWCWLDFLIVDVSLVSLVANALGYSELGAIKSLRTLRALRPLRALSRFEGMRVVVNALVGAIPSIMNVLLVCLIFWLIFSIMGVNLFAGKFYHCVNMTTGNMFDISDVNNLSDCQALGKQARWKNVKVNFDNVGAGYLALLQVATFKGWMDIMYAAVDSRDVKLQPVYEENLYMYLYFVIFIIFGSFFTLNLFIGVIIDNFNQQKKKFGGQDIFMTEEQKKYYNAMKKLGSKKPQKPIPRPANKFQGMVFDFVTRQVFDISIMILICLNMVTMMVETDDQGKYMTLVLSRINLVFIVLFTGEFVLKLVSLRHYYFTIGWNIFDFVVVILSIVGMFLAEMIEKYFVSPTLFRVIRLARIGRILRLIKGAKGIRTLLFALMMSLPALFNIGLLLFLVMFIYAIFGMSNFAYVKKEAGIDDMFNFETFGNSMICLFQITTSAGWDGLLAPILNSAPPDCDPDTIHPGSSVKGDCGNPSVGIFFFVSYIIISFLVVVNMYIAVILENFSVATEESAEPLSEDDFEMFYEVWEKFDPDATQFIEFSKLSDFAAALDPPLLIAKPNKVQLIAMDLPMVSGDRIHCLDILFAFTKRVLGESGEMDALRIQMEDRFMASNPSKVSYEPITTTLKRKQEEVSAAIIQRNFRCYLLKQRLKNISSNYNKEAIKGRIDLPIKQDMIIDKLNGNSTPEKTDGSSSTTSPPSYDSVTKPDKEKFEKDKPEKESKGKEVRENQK

hNav1.7 [4] = target: T1, hNav1.7
hNav1.3 [5] = target: T3, hNav1.3; type: cell-based; conditions: for pIC50: Nav1.3 Use IC50
hNav1.5 [6] = target: T2, hNav1.5; remark: listed apart in the source
[7] = IonWorks Quattro, clamped to −110 mV, depolarized to −10 mV, 5 min after compound, n=2, read-out: IWQ Use Nav1.5
[8] = IonWorks Quattro, clamped to −110 mV, depolarized to −10 mV, 5 min after compound, n=2, read-out: IWQ Use Nav1.3
[9] = IonWorks Quattro, clamped to −110 mV, depolarized to −10 mV, 5 min after compound, n=2, read-out: IWQ Use Nav1.7

SMILES: CC[C@H](C)[C@@H]1NC(=O)[C@@H]2CSSC[C@@H]3NC(=O)[C@H](C(C)C)NC(=O)[C@H](CC(C)C)NC(=O)[C@H](CC(N)=O)NC(=O)[C@@H]4CCCN4C(=O)[C@H](CCCNC(=N)N)NC(=O)[C@H](CSSC[C@H](NC(=O)[C@@H](N)Cc4cccc5ccccc45)C(=O)N[C@@H](CC(C)C)C(=O)NCC(=O)N[C@@H](Cc4ccccc4)C(=O)N[C@@H](CCSC)C(=O)N[C@@H](CCCNC(=N)N)C(=O)N[C@@H](CCCCN)C(=O)N2)NC(=O)[C@H](CSSC[C@@H](C(=O)N[C@@H](CCCCN)C(=O)N[C@@H](Cc2ccc(O)cc2)C(=O)N[C@H](C(=O)N[C@@H](Cc2ccccc2)C(N)=O)C(C)C)NC(=O)[C@H](Cc2c[nH]c4ccccc24)NC(=O)[C@H](CCCCN)NC(=O)[C@H](Cc2c[nH]cn2)NC(=O)[C@H]([C@@H](C)O)NC(=O)[C@H](CCCNC(=N)N)NC(=O)[C@H](CO)NC3=O)NC(=O)[C@H](CCCCN)NC(=O)[C@H](CC(=O)O)NC(=O)[C@H](CC(N)=O)NC(=O)[C@H](CC(=O)O)NC(=O)[C@@H]2CCCN2C1=O [SEQ ID NO: 77] (H-[1Nal]CLGFMRKCIPDNDKCCRPNLVCSRTHKWCKYVF-NH2; disulfide 2-17, 9-23, 16-30)
- pIC50 (hNav1.7 [1]): 6.96
- pIC50 (hNav1.5 [2]; [7]): 4.87
- pIC50 (hNav1.3 [3]; [8]): 6.85
- pIC50 (hNav1.7 [4]; Nav1.7 Use IC50): 7.64
- pIC50 (hNav1.3 [5]): 7.18
- pIC50 (hNav1.5 [6]): 5.12

SMILES: CC[C@H](C)[C@@H]1NC(=O)[C@@H]2CSSC[C@@H]3NC(=O)[C@H](C(C)C)NC(=O)[C@H](CC(C)C)NC(=O)[C@H](CC(N)=O)NC(=O)[C@@H]4CCCN4C(=O)[C@H](CCCNC(=N)N)NC(=O)[C@H](CSSC[C@H](NC(=O)[C@@H](N)CC(=O)O)C(=O)N[C@@H](CC(C)C)C(=O)NCC(=O)N[C@@H](Cc4ccccc4)C(=O)N[C@@H](CC4CCCCC4)C(=O)N[C@@H](CCCNC(=N)N)C(=O)N[C@@H](CCCCN)C(=O)N2)NC(=O)[C@H](CSSC[C@@H](C(=O)N[C@@H](CCCCN)C(=O)N[C@@H](Cc2ccc(O)cc2)C(=O)N[C@H](C(=O)N[C@@H](Cc2ccccc2)C(N)=O)C(C)C)NC(=O)[C@H](Cc2c[nH]c4ccccc24)NC(=O)[C@H](CCCCN)NC(=O)[C@H](Cc2cnc[nH]2)NC(=O)[C@H]([C@@H](C)O)NC(=O)[C@H](CCCNC(=N)N)NC(=O)[C@H](CO)NC3=O)NC(=O)[C@H](CCCCN)NC(=O)[C@H](CC(=O)O)NC(=O)[C@H](CC(N)=O)NC(=O)[C@H](CC(=O)O)NC(=O)[C@@H]2CCCN2C1=O [SEQ ID NO: 245]
- pIC50 (hNav1.7 [1]; [9]): 7.70
- pIC50 (hNav1.5 [2]; [7]): 5.63
- pIC50 (hNav1.7 [4]; Nav1.7 Use IC50): 8.52
- pIC50 (hNav1.3 [5]): 8.70
- pIC50 (hNav1.5 [6]): 5.57

SMILES: CC[C@H](C)[C@@H]1NC(=O)[C@@H]2CSSC[C@@H]3NC(=O)[C@H](C(C)C)NC(=O)[C@H](CC(C)C)NC(=O)[C@H](CC(N)=O)NC(=O)[C@@H]4CCCN4C(=O)[C@H](CCCNC(=N)N)NC(=O)[C@H](CSSC[C@H](NC(=O)[C@@H](N)CC(=O)O)C(=O)N[C@@H](CC(C)C)C(=O)NCC(=O)N[C@@H](Cc4ccccc4)C(=O)N[C@@H](Cc4cccc5ccccc45)C(=O)N[C@@H](CCCNC(=N)N)C(=O)N[C@@H](CCCCN)C(=O)N2)NC(=O)[C@H](CSSC[C@@H](C(=O)N[C@@H](CCCCN)C(=O)N[C@@H](Cc2ccc(O)cc2)C(=O)N[C@H](C(=O)N[C@@H](Cc2ccccc2)C(N)=O)C(C)C)NC(=O)[C@H](Cc2c[nH]c4ccccc24)NC(=O)[C@H](CCCCN)NC(=O)[C@H](Cc2c[nH]cn2)NC(=O)[C@H]([C@@H](C)O)NC(=O)[C@H](CCCNC(=N)N)NC(=O)[C@H](CO)NC3=O)NC(=O)[C@H](CCCCN)NC(=O)[C@H](CC(=O)O)NC(=O)[C@H](CC(N)=O)NC(=O)[C@H](CC(=O)O)NC(=O)[C@@H]2CCCN2C1=O [SEQ ID NO: 161]
- pIC50 (hNav1.7 [1]; [9]): 8.15
- pIC50 (hNav1.5 [2]; IWQ Use Nav1.5): 5.63
- pIC50 (hNav1.3 [3]; [8]): 8.22
- pIC50 (hNav1.7 [4]; Nav1.7 Use IC50): 8.52
- pIC50 (hNav1.3 [5]): 8.40
- pIC50 (hNav1.5 [6]): 6.45

SMILES: CC[C@H](C)[C@@H]1NC(=O)[C@@H]2CSSC[C@@H]3NC(=O)[C@H](C(C)C)NC(=O)[C@H](CC(C)C)NC(=O)[C@H](CC(N)=O)NC(=O)[C@@H]4CCCN4C(=O)[C@H](CCCNC(=N)N)NC(=O)[C@H](CSSC[C@H](NC(=O)[C@@H](N)CC(=O)O)C(=O)N[C@@H](CC(C)C)C(=O)NCC(=O)N[C@@H](Cc4ccc(-c5ccccc5)cc4)C(=O)N[C@@H](CCSC)C(=O)N[C@@H](CCCNC(=N)N)C(=O)N[C@@H](CCCCN)C(=O)N2)NC(=O)[C@H](CSSC[C@@H](C(=O)N[C@@H](CCCCN)C(=O)N[C@@H](Cc2ccc(O)cc2)C(=O)N[C@H](C(=O)N[C@@H](Cc2ccccc2)C(N)=O)C(C)C)NC(=O)[C@H](Cc2c[nH]c4ccccc24)NC(=O)[C@H](CCCCN)NC(=O)[C@H](Cc2c[nH]cn2)NC(=O)[C@H]([C@@H](C)O)NC(=O)[C@H](CCCNC(=N)N)NC(=O)[C@H](CO)NC3=O)NC(=O)[C@H](CCCCN)NC(=O)[C@H](CC(=O)O)NC(=O)[C@H](CC(N)=O)NC(=O)[C@H](CC(=O)O)NC(=O)[C@@H]2CCCN2C1=O [SEQ ID NO: 242]
- pIC50 (hNav1.7 [1]; [9]): 7.22
- pIC50 (hNav1.5 [2]; [7]): 5.47
- pIC50 (hNav1.7 [4]; Nav1.7 Use IC50): 7.21
- potency against NaV1.3, in words (hNav1.3 [5]): increased potency
- pIC50 (hNav1.3 [5]): 8.52
- pIC50 (hNav1.5 [6]; read-out: Nav1.5 Use IC50): 5.68

SMILES: CCCC[C@@H]1NC(=O)[C@H](Cc2ccccc2)NC(=O)CNC(=O)[C@H](CC(C)C)NC(=O)[C@@H](NC(=O)[C@@H](N)CC(=O)O)CSSC[C@@H]2NC(=O)[C@@H]3CSSC[C@@H](C(=O)N[C@@H](CCCCN)C(=O)N[C@@H](Cc4ccc(O)cc4)C(=O)N[C@H](C(=O)N[C@@H](Cc4ccccc4)C(N)=O)C(C)C)NC(=O)[C@H](Cc4c[nH]c5ccccc45)NC(=O)[C@H](CCCCN)NC(=O)[C@H](Cc4c[nH]cn4)NC(=O)[C@H]([C@@H](C)O)NC(=O)[C@H](CCCNC(=N)N)NC(=O)[C@H](CO)NC(=O)[C@H](CSSC[C@H](NC(=O)[C@H](CCCCN)NC(=O)[C@H](CCCNC(=N)N)NC1=O)C(=O)N[C@@H]([C@@H](C)CC)C(=O)N1CCC[C@H]1C(=O)N[C@@H](CC(=O)O)C(=O)N[C@@H](CC(N)=O)C(=O)N[C@@H](CC(=O)O)C(=O)N[C@@H](CCCCN)C(=O)N3)NC(=O)[C@H](C(C)C)NC(=O)[C@H](CC(C)C)NC(=O)[C@H](CC(N)=O)NC(=O)[C@@H]1CCCN1C(=O)[C@H](CCCNC(=N)N)NC2=O [SEQ ID NO: 123]
- pIC50 (hNav1.7 [1]; [9]): 7.30
- pIC50 (hNav1.5 [2]; [7]): 5.35
- pIC50 (hNav1.3 [3]; [8]): 7.70
- pIC50 (hNav1.7 [4]; read-out: Nav1.7 Use IC50): 8.10
- pIC50 (hNav1.3 [5]): 8.05
- pIC50 (hNav1.5 [6]): 5.94

SMILES: CC[C@H](C)[C@@H]1NC(=O)[C@@H]2CSSC[C@@H]3NC(=O)[C@H](C(C)C)NC(=O)[C@H](CC(C)C)NC(=O)[C@H](CC(N)=O)NC(=O)[C@@H]4CCCN4C(=O)[C@H](CCCNC(=N)N)NC(=O)[C@H](CSSC[C@H](NC(=O)[C@@H](N)CC(=O)O)C(=O)N[C@@H](CC(C)C)C(=O)NCC(=O)N[C@@H](Cc4ccccc4)C(=O)N[C@@H](Cc4ccccc4)C(=O)N[C@@H](CCCNC(=N)N)C(=O)N[C@@H](CCCCN)C(=O)N2)NC(=O)[C@H](CSSC[C@@H](C(=O)N[C@@H](CCCCN)C(=O)N[C@@H](Cc2ccc(O)cc2)C(=O)N[C@H](C(=O)N[C@@H](Cc2ccccc2)C(N)=O)C(C)C)NC(=O)[C@H](Cc2c[nH]c4ccccc24)NC(=O)[C@H](CCCCN)NC(=O)[C@H](Cc2cnc[nH]2)NC(=O)[C@H]([C@@H](C)O)NC(=O)[C@H](CCCNC(=N)N)NC(=O)[C@H](CO)NC3=O)NC(=O)[C@H](CCCCN)NC(=O)[C@H](CC(=O)O)NC(=O)[C@H](CC(N)=O)NC(=O)[C@H](CC(=O)O)NC(=O)[C@@H]2CCCN2C1=O [SEQ ID NO: 89] (H-DCLGFFRKCIPDNDKCCRPNLVCSRTHKWCKYVF-NH2; disulfide 2-17, 9-23, 16-30)
- pIC50 (hNav1.7 [1]): 7.30
- pIC50 (hNav1.5 [2]; [7]): 5.04
- pIC50 (hNav1.3 [3]; [8]): 7.52
- pIC50 (hNav1.7 [4]; Nav1.7 Use IC50): 7.82
- pIC50 (hNav1.3 [5]): 7.80
- pIC50 (hNav1.5 [6]): 5.50

SMILES: CC[C@H](C)[C@@H]1NC(=O)[C@@H]2CSSC[C@@H]3NC(=O)[C@H](C(C)C)NC(=O)[C@H](CC(C)C)NC(=O)[C@H](CC(N)=O)NC(=O)[C@@H]4CCCN4C(=O)[C@H](CCCNC(=N)N)NC(=O)[C@H](CSSC[C@H](NC(=O)[C@@H](N)CC(=O)O)C(=O)N[C@@H](CC(C)C)C(=O)NCC(=O)N[C@@H](CC4CCCCC4)C(=O)N[C@@H](CCSC)C(=O)N[C@@H](CCCNC(=N)N)C(=O)N[C@@H](CCCCN)C(=O)N2)NC(=O)[C@H](CSSC[C@@H](C(=O)N[C@@H](CCCCN)C(=O)N[C@@H](Cc2ccc(O)cc2)C(=O)N[C@H](C(=O)N[C@@H](Cc2ccccc2)C(N)=O)C(C)C)NC(=O)[C@H](Cc2c[nH]c4ccccc24)NC(=O)[C@H](CCCCN)NC(=O)[C@H](Cc2cnc[nH]2)NC(=O)[C@H]([C@@H](C)O)NC(=O)[C@H](CCCNC(=N)N)NC(=O)[C@H](CO)NC3=O)NC(=O)[C@H](CCCCN)NC(=O)[C@H](CC(=O)O)NC(=O)[C@H](CC(N)=O)NC(=O)[C@H](CC(=O)O)NC(=O)[C@@H]2CCCN2C1=O [SEQ ID NO: 243]
- pIC50 (hNav1.7 [1]; [9]): 8.00
- pIC50 (hNav1.5 [2]; [7]): 5.16
- pIC50 (hNav1.3 [3]): 7.70
- pIC50 (hNav1.7 [4]; Nav1.7 Use IC50): 8.52
- pIC50 (hNav1.3 [5]): 8.15
- pIC50 (hNav1.5 [6]): 5.47
